Source: US20190367516A1 (Bayer Pharma Aktiengesellschaft, priority 2015, published 2019)
Where two headings read alike, the source gives them in different places.

Target: T1, human M2 receptor (Homo sapiens, UniProt P08172)
T1 sequence (P08172 1-466): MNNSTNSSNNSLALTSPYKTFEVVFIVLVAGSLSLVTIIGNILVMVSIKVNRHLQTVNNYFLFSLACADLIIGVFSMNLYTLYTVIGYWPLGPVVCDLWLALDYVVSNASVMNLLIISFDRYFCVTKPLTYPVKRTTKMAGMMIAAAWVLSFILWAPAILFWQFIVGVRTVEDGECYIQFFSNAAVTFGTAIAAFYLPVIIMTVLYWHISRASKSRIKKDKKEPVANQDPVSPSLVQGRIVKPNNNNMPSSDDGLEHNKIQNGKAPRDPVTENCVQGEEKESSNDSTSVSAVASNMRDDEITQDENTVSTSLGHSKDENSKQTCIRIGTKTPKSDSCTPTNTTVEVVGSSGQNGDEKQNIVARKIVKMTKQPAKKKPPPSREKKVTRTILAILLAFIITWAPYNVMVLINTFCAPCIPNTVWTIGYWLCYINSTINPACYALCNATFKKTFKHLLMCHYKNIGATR
Conditions: for Emax: read-out: Efficiency, boosting of the acetylcholine effect at EC20 acetylcholine concentration; for Efficiency: boosting of the acetylcholine effect at EC20 acetylcholine concentration

[1] = Receptor activity EC50, M2-GIRK1/4 activation test, acetylcholine at EC20, allosteric potency, in some cases mean values from two or more determinations
[2] = Receptor activity EC50, allosteric potency at EC20 acetylcholine, M2-GIRK1/4 reporter cells, in some cases mean of two or more determinations

CC[C@@H](NC(=O)c1cn(-c2ccc(F)cc2F)c2nc(N3CCOC(C(F)F)C3)ccc2c1=O)C(F)(F)F (single isomer, unassigned) [Example 265]
EC50 [1]: 23700 nM

CC(NC(=O)c1cn(-c2ccc(F)cc2F)c2nc(N(C)CCF)ccc2c1=O)C(F)(F)F (racemic) [Example 105, rac-1-(2,4-Difluorophenyl)-7-[(2-fluoroethyl)(methyl)amino]-4-oxo-N-[1,1,1-trifluoropropan-2-yl]-1,4-dihydro-1,8-naphthyridine-3-carboxamide]
EC50 [1]: 146 nM

O=C(NC(c1c(F)cccc1F)C(F)(F)F)c1cn(-c2ccc(F)cc2F)c2nc(N3CCCC(O)C3=O)ccc2c1=O (centres unmarked) [Example 247, 1-(2,4-Difluorophenyl)-N-[1-(2,6-difluorophenyl)-2,2,2-trifluoroethyl]-7-[3-hydroxy-2-oxopiperidin-1-yl]-4-oxo-1,4-dihydro-1,8-naphthyridine-3-carboxamide]
EC50 [1]: 160 nM

C[C@H](NC(=O)c1cn(-c2c(F)cc(F)cc2Cl)c2nc(N3CC4CC4(O)C3)ccc2c1=O)C(F)(F)F (stereo partly drawn) [Example 408, 1-(2-Chloro-4,6-difluorophenyl)-7-[1-hydroxy-3-azabicyclo[3.1.0]hex-3-yl]-4-oxo-N-[(2S)-1,1,1-trifluoropropan-2-yl]-1,4-dihydro-1,8-naphthyridine-3-carboxamide]
EC50 [2]: 9 nM | Emax (M2-GIRK1/4 reporter cells): 94%

C[C@@H](COC(F)(F)F)NC(=O)c1cn(-c2c(F)cc(F)cc2Cl)c2nc(N3C[C@@H](O)[C@H](O)C3)ccc2c1=O [Example 322, 1-(2-Chloro-4,6-difluorophenyl)-7-[(3R,4R)-3,4-dihydroxypyrrolidin-1-yl]-4-oxo-N-[(2S)-1-(trifluoromethoxy)propan-2-yl]-1,4-dihydro-1,8-naphthyridine-3-carboxamide]
EC50 [1]: 40 nM

CC[C@H](NC(=O)c1cn(-c2c(F)cc(F)cc2Cl)c2nc(N3C[C@@H](O)[C@H](O)C3)ccc2c1=O)C(F)(F)F (single isomer, unassigned) [Example 567]
EC50 [2]: 140 nM | Emax (M2-GIRK1/4 reporter cells): 80%

O=C(NC(c1c(F)cccc1F)C(F)(F)F)c1cn(-c2ccc(F)cc2F)c2nc(N3CCC(O)CC3=O)ccc2c1=O (single isomer, unassigned) [Example 253, 1-(2,4-Difluorophenyl)-N-[1-(2,6-difluorophenyl)-2,2,2-trifluoroethyl]-7-[4-hydroxy-2-oxopiperidin-1-yl]-4-oxo-1,4-dihydro-1,8-naphthyridine-3-carboxamide]
EC50 [1]: 483 nM

O=C(NC12CC(C1)C2)c1cn(-c2c(F)cc(F)cc2F)c2nc(N3CC(O)C4(CC4)C3)ccc2c1=O (racemic) [Example 626, N-(Bicyclo[1.1.1]pent-1-yl)-7-[7-hydroxy-5-azaspiro[2.4]hept-5-yl]-4-oxo-1-(2,4,6-trifluorophenyl)-1,4-dihydro-1,8-naphthyridine-3-carboxamide]
EC50 [2]: 44 nM | Emax (M2-GIRK1/4 reporter cells): 93.5%

CC(NC(=O)c1cn(-c2ccc(F)cc2F)c2nc(N(C)CC(F)(F)F)ccc2c1=O)C(F)(F)F (racemic) [Example 99, rac-1-(2,4-Difluorophenyl)-7-[methyl(2,2,2-trifluoroethyl)amino]-4-oxo-N-[1,1,1-trifluoropropan-2-yl]-1,4-dihydro-1,8-naphthyridine-3-carboxamide]
EC50 [1]: 182 nM

O=C(NC(C(F)(F)F)C(F)(F)F)c1cn(-c2ccc(F)cc2F)c2nc(NCC(F)F)ccc2c1=O [Example 126, 7-[(2,2-Difluoroethyl)amino]-1-(2,4-difluorophenyl)-N-(1,1,1,3,3,3-hexafluoropropan-2-yl)-4-oxo-1,4-dihydro-1,8-naphthyridine-3-carboxamide]
EC50 [1]: 180 nM

O=C(NC(CC(F)(F)F)C(F)(F)F)c1cn(-c2c(F)cc(F)cc2F)c2nc(N3C[C@@H](O)CC3=O)ccc2c1=O (single isomer, unassigned) [Example 608]
EC50 [2]: 22 nM | Efficiency (M2-GIRK1/4 reporter cells): 100.0%

O=C(NC(c1ccccc1Cl)C(F)(F)F)c1cn(-c2c(F)cc(F)cc2F)c2nc(N3CCNC3=O)ccc2c1=O (racemic) [Example 565, N-[1-(2-Chlorophenyl)-2,2,2-trifluoroethyl]-4-oxo-7-(2-oxoimidazolidin-1-yl)-1-(2,4,6-trifluorophenyl)-1,4-dihydro-1,8-naphthyridine-3-carboxamide]
Efficiency (M2-GIRK1/4 reporter cells): 99.5%

CC(NC(=O)c1cn(-c2c(F)cc(F)cc2F)c2nc(N3C[C@@H](O)[C@H](O)C3)ccc2c1=O)(C1CC1)C(F)(F)F (stereo partly drawn) [Example 443, N-[2-Cyclopropyl-1,1-trifluoropropan-2-yl]-7-[(3R,4R)-3,4-dihydroxypyrrolidin-1-yl]-4-oxo-1-(2,4,6-trifluorophenyl)-1,4-dihydro-1,8-naphthyridine-3-carboxamide]
Efficiency (M2-GIRK1/4 reporter cells): 100.0% | EC50 (read-out: Receptor activity EC50, allosteric potency at EC20 acetylcholine, M2-GIRK1/4 reporter cells, in some cases mean of two or more determinations): 9 nM

O=C(NC(CC(F)(F)F)C(F)(F)F)c1cn(-c2c(F)cc(F)cc2F)c2nc(N3C[C@@H](O)[C@H](O)C3)ccc2c1=O (stereo partly drawn) [Example 545, 7-[(3R,4R)-3,4-Dihydroxypyrrolidin-1-yl]-N-[1,1,1,4,4,4-hexafluorobutan-2-yl]-4-oxo-1-(2,4,6-trifluorophenyl)-1,4-dihydro-1,8-naphthyridine-3-carboxamide]
EC50 [2]: 8 nM | Emax (M2-GIRK1/4 reporter cells): 99%

O=C(NC12CC3CC(CC(C3)C1)C2)c1cn(-c2ccc(F)cc2F)c2nc(N3CC[S+]([O-])C3)ccc2c1=O (centres unmarked) [Example 131, 1-(2,4-Difluorophenyl)-7-(1-oxido-1,3-thiazolidin-3-yl)-4-oxo-N-(tricyclo[3.3.1.1^3,7]dec-1-yl)-1,4-dihydro-1,8-naphthyridine-3-carboxamide]
EC50 [1]: 157 nM

CN(C[C@H](O)CO)c1ccc2c(=O)c(C(=O)N[C@@H](C3CC3)C(F)(F)F)cn(-c3c(F)cc(F)cc3F)c2n1 [Example 491]
EC50 [2]: 106 nM | Emax (M2-GIRK1/4 reporter cells): 85.5%

CC(NC(=O)c1cn(-c2ccc(F)cc2F)c2nc(N3CCCC3=O)ccc2c1=O)C(F)(F)F (centres unmarked) [Example 179]
EC50 [1]: 169 nM

CC(C)(CC(F)(F)F)NC(=O)c1cn(-c2c(F)cc(F)cc2F)c2nc(N3CC(O)C4(CC4)C3)ccc2c1=O (single isomer, unassigned) [Example 570, 7-[7-Hydroxy-5-azaspiro[2.4]hept-5-yl]-4-oxo-N-(4,4,4-trifluoro-2-methylbutan-2-yl)-1-(2,4,6-trifluorophenyl)-1,4-dihydro-1,8-naphthyridine-3-carboxamide]
EC50 [2]: 56 nM | Emax (M2-GIRK1/4 reporter cells): 100%

NC(=O)[C@H]1CN(c2ccc3c(=O)c(C(=O)N[C@@H](C4CC4)C(F)(F)F)cn(-c4c(F)cc(F)cc4F)c3n2)C(=O)O1 [Example 671, 7-[(5R)-5-Carbamoyl-2-oxo-1,3-oxazolidin-3-yl]-N-[(15)-1-cyclopropyl-2,2,2-trifluoroethyl]-4-oxo-1-(2,4,6-trifluorophenyl)-1,4-dihydro-1,8-naphthyridine-3-carboxamide]
EC50 [2]: 100 nM | Emax (M2-GIRK1/4 reporter cells): 94%

CC[C@@H](NC(=O)c1cn(-c2c(F)cc(F)cc2Cl)c2nc(N3CC4CC4(O)C3)ccc2c1=O)C(F)(F)F (stereo partly drawn) [Example 406, 1-(2-Chloro-4,6-difluorophenyl)-7-[1-hydroxy-3-azabicyclo[3.1.0]hex-3-yl]-4-oxo-N-[(2R)-1,1,1-trifluorobutan-2-yl]-1,4-dihydro-1,8-naphthyridine-3-carboxamide]
EC50 [2]: 9 nM | Emax (M2-GIRK1/4 reporter cells): 88%

CC[C@@H](NC(=O)c1cn(-c2ccc(F)cc2F)c2nc(N3CC4CNC(=O)C4C3)ccc2c1=O)C(F)(F)F (single isomer, unassigned) [Example 222]
EC50 [1]: 200 nM

CC[C@@H](NC(=O)c1cn(-c2c(Cl)cc(F)cc2Cl)c2nc(N3C[C@@H](O)[C@H](O)C3)ccc2c1=O)C(F)(F)F [Example 643, 1-(2,6-Dichloro-4-fluorophenyl)-7-[(3R,4R)-3,4-dihydroxypyrrolidin-1-yl]-4-oxo-N-[(2R)-1,1,1-trifluorobutan-2-yl]-1,4-dihydro-1,8-naphthyridine-3-carboxamide]
EC50 [2]: 73 nM | Emax (M2-GIRK1/4 reporter cells): 92%

CC(NC(=O)c1cn(-c2c(F)cc(F)cc2F)c2nc(N3C[C@@H](O)[C@H](O)C3)ccc2c1=O)(C(F)(F)F)C(F)(F)F [Example 591, 7-[(3R,4R)-3,4-Dihydroxypyrrolidin-1-yl]-N-(1,1,3,3,3-hexafluoro-2-methylpropan-2-yl)-4-oxo-1-(2,4,6-trifluorophenyl)-1,4-dihydro-1,8-naphthyridine-3-carboxamide]
EC50 [2]: 16 nM | Emax (M2-GIRK1/4 reporter cells): 100%

CC[C@H](NC(=O)c1cn(-c2c(F)cccc2Cl)c2nc(N3C[C@@H](O)CC3=O)ccc2c1=O)C(F)(F)F [Example 351, 1-(2-Chloro-6-fluorophenyl)-7-[(4S)-4-hydroxy-2-oxopyrrolidin-1-yl]-4-oxo-N-[(2S)-1,1,1-trifluorobutan-2-yl]-1,4-dihydro-1,8-naphthyridine-3-carboxamide]
EC50 [1]: 17 nM

O=C(N[C@@H](C1CC1)C(F)(F)F)c1cn(-c2c(F)cc(F)cc2F)c2nc(N(CCO)CCO)ccc2c1=O [Example 664, 7-[Bis(2-hydroxyethyl)amino]-N-[(1S)-1-cyclopropyl-2,2,2-trifluoroethyl]-4-oxo-1-(2,4,6-trifluorophenyl)-1,4-dihydro-1,8-naphthyridine-3-carboxamide]
EC50 [2]: 100 nM | Emax (M2-GIRK1/4 reporter cells): 98%
